Common to all, as to experiment: Kinase inhibitor specificity profiling (Reaction Biology Corporation)
Holding throughout (type): biochemical
Holding throughout (design): % Enzyme Activity (relative to DMSO controls): concentration or dose not given beside the values

For test [1], the target named is T1, panel of 370 protein kinases (Homo sapiens, UniProt Q9H422).
T1 construct: purchased Reaction Biology Corporation (assay service)
Particulars: 2 h, kinase HIPK3; read-out: % Enzyme Activity (relative to DMSO controls).

For test [2], the target named is T2, panel of 370 protein kinases (Homo sapiens, UniProt P28482).
T2 construct: purchased Reaction Biology Corporation (assay service)
T2 sequence (P28482 whole entry): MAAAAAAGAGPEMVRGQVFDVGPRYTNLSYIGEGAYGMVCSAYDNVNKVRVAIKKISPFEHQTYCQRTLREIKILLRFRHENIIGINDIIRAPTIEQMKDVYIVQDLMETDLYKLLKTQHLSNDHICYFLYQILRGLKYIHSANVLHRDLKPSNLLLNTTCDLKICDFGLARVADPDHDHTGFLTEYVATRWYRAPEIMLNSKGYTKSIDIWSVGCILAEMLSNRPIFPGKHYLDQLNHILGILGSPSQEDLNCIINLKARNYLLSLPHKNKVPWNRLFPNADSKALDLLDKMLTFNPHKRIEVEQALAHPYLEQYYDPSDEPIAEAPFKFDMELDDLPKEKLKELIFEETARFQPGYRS
Particulars: 2 h, kinase ERK2/MAPK1; read-out: % Enzyme Activity (relative to DMSO controls).

Test [3] addresses T3, panel of 370 protein kinases (Homo sapiens, UniProt O00506).
T3 construct: purchased Reaction Biology Corporation (assay service)
Particulars: 2 h, kinase STK25/YSK1; read-out: % Enzyme Activity (relative to DMSO controls).

Test [4] concerns the target T4, panel of 370 protein kinases (Homo sapiens, UniProt O14578).
T4 construct: purchased Reaction Biology Corporation (assay service)
The following applies: kinase STK21/CIT.

For test [5], the target named is T5, panel of 370 protein kinases (Homo sapiens, UniProt Q9Y243).
T5 construct: purchased Reaction Biology Corporation (assay service)
The following applies: 2 h, kinase AKT3; read-out: % Enzyme Activity (relative to DMSO controls).

The target in test [6] is T6, panel of 370 protein kinases (Homo sapiens, UniProt Q9UBE8).
T6 construct: purchased Reaction Biology Corporation (assay service)
T6 sequence (Q9UBE8 whole entry): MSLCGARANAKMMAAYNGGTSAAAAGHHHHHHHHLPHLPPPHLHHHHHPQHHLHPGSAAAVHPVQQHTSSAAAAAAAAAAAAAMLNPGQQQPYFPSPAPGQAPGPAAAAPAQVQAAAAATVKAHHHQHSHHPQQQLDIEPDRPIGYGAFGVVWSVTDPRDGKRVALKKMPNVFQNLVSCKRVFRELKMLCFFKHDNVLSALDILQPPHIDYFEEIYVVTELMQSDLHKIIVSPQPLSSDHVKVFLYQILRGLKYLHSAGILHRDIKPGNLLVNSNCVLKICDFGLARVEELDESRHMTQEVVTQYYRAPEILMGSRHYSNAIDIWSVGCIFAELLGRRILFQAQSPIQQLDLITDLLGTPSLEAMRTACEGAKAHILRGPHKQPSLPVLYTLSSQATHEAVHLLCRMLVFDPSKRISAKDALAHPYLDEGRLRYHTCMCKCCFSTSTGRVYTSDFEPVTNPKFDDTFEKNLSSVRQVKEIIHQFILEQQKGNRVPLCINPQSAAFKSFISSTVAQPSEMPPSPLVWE
The following applies: 2 h, kinase NLK; read-out: % Enzyme Activity (relative to DMSO controls).

Test [7] addresses T7, panel of 370 protein kinases (Homo sapiens, UniProt P51955).
T7 construct: purchased Reaction Biology Corporation (assay service)
The following applies: 2 h, kinase NEK2; read-out: % Enzyme Activity (relative to DMSO controls).

For test [8], the target named is T8, panel of 370 protein kinases (Homo sapiens, UniProt Q9H4B4).
T8 construct: purchased Reaction Biology Corporation (assay service)
Particulars: 2 h, kinase PLK3; read-out: % Enzyme Activity (relative to DMSO controls).

In test [9] the target is T9, panel of 370 protein kinases (Homo sapiens, UniProt Q32MK0).
T9 construct: purchased Reaction Biology Corporation (assay service)
The following applies: 2 h, kinase MYLK3; read-out: % Enzyme Activity (relative to DMSO controls).

Test [10] deals with T10, panel of 370 protein kinases (Homo sapiens, UniProt P54756).
T10 construct: purchased Reaction Biology Corporation (assay service)
T10 sequence (P54756 25-1037): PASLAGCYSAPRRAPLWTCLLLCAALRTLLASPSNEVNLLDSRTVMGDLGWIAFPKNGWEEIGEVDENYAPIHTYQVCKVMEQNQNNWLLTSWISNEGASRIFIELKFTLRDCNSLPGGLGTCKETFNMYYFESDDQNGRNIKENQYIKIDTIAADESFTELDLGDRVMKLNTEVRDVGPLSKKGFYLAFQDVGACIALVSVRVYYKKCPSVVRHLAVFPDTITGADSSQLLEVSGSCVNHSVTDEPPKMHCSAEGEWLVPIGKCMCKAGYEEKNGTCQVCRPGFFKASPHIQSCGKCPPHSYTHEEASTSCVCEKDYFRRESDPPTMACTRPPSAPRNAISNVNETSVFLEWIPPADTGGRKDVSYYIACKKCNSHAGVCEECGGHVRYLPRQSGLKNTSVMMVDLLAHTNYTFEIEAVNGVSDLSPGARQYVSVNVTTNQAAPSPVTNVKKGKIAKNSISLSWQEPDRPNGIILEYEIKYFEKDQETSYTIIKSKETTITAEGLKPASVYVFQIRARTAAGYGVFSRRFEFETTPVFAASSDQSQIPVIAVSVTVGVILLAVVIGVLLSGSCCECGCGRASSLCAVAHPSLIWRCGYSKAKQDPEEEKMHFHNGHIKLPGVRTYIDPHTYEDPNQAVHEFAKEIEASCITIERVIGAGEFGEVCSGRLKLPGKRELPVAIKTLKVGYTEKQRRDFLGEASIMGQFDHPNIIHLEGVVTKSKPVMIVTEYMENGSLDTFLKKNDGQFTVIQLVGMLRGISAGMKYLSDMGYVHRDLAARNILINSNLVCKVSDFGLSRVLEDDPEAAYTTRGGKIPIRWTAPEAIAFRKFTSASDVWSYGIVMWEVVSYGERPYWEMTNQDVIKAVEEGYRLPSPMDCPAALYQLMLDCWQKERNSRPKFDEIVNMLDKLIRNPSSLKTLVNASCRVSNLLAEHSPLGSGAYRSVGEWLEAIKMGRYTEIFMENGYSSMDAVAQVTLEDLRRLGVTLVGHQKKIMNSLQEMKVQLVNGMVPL
Particulars: kinase EPHA5.

Test [11] addresses T11, panel of 370 protein kinases (Homo sapiens, UniProt Q15759).
T11 construct: purchased Reaction Biology Corporation (assay service)
Particulars: 2 h, kinase P38b/MAPK11; read-out: % Enzyme Activity (relative to DMSO controls).

Test [12] deals with T12, panel of 370 protein kinases (Homo sapiens, UniProt Q86Z02).
T12 construct: purchased Reaction Biology Corporation (assay service)
Particulars: 2 h, kinase HIPK1; read-out: % Enzyme Activity (relative to DMSO controls).

Test [13] addresses T13, panel of 370 protein kinases (Homo sapiens, UniProt P53355).
T13 construct: purchased Reaction Biology Corporation (assay service)
The following applies: 2 h, kinase DAPK1; read-out: % Enzyme Activity (relative to DMSO controls).

Test [14] has as its target T14, panel of 370 protein kinases (Homo sapiens, UniProt Q7KZI7).
T14 construct: purchased Reaction Biology Corporation (assay service)
The following applies: 2 h, kinase MARK2/PAR-1Ba; read-out: % Enzyme Activity (relative to DMSO controls).

The target in test [15] is T15, panel of 370 protein kinases (Homo sapiens, UniProt Q13153).
T15 construct: purchased Reaction Biology Corporation (assay service)
T15 sequence (Q13153 whole entry): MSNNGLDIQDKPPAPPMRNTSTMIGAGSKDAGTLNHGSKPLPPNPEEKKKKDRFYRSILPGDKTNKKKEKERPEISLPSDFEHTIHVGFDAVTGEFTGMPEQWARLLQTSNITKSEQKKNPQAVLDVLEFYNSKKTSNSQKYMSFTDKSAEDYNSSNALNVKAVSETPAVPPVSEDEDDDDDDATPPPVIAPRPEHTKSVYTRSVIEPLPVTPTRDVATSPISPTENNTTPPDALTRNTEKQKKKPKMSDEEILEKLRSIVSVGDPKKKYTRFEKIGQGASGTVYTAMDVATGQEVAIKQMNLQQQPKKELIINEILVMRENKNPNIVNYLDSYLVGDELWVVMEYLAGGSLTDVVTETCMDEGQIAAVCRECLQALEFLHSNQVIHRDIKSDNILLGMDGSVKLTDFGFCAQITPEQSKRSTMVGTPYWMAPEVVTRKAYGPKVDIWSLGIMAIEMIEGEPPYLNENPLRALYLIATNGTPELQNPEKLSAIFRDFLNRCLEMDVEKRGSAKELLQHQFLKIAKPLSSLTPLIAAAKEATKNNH
The following applies: 2 h, kinase PAK1; read-out: % Enzyme Activity (relative to DMSO controls).

For test [16], the target named is T16, panel of 370 protein kinases (Homo sapiens, UniProt Q9UKE5).
T16 construct: purchased Reaction Biology Corporation (assay service)
Particulars: 2 h, kinase TNIK; read-out: % Enzyme Activity (relative to DMSO controls).

Test [17] concerns the target T17, panel of 370 protein kinases (Homo sapiens, UniProt P22694).
T17 construct: purchased Reaction Biology Corporation (assay service)
The following applies: 2 h, kinase PKAcb; read-out: % Enzyme Activity (relative to DMSO controls).

Test [18] has as its target T18, panel of 370 protein kinases (Homo sapiens, UniProt Q8IW41).
T18 construct: purchased Reaction Biology Corporation (assay service)
The following applies: 2 h, kinase MAPKAPK5/PRAK; read-out: % Enzyme Activity (relative to DMSO controls).

The target in test [19] is T19, panel of 370 protein kinases (Homo sapiens, UniProt P22455).
T19 construct: purchased Reaction Biology Corporation (assay service)
Particulars: 2 h, kinase FGFR4; read-out: % Enzyme Activity (relative to DMSO controls).

Test [20] concerns the target T20, panel of 370 protein kinases (Homo sapiens, UniProt P52564).
T20 construct: purchased Reaction Biology Corporation (assay service)
Particulars: 2 h, kinase MKK6; read-out: % Enzyme Activity (relative to DMSO controls).

In test [21] the target is T21, panel of 370 protein kinases (Homo sapiens, UniProt P48729).
T21 construct: purchased Reaction Biology Corporation (assay service)
Particulars: 2 h, kinase CK1a1; read-out: % Enzyme Activity (relative to DMSO controls).

Where “and” joins values, the source holds several entries; their conditions need not be identical. Identical values can stand only once.

T4 sequence (O14578 whole entry): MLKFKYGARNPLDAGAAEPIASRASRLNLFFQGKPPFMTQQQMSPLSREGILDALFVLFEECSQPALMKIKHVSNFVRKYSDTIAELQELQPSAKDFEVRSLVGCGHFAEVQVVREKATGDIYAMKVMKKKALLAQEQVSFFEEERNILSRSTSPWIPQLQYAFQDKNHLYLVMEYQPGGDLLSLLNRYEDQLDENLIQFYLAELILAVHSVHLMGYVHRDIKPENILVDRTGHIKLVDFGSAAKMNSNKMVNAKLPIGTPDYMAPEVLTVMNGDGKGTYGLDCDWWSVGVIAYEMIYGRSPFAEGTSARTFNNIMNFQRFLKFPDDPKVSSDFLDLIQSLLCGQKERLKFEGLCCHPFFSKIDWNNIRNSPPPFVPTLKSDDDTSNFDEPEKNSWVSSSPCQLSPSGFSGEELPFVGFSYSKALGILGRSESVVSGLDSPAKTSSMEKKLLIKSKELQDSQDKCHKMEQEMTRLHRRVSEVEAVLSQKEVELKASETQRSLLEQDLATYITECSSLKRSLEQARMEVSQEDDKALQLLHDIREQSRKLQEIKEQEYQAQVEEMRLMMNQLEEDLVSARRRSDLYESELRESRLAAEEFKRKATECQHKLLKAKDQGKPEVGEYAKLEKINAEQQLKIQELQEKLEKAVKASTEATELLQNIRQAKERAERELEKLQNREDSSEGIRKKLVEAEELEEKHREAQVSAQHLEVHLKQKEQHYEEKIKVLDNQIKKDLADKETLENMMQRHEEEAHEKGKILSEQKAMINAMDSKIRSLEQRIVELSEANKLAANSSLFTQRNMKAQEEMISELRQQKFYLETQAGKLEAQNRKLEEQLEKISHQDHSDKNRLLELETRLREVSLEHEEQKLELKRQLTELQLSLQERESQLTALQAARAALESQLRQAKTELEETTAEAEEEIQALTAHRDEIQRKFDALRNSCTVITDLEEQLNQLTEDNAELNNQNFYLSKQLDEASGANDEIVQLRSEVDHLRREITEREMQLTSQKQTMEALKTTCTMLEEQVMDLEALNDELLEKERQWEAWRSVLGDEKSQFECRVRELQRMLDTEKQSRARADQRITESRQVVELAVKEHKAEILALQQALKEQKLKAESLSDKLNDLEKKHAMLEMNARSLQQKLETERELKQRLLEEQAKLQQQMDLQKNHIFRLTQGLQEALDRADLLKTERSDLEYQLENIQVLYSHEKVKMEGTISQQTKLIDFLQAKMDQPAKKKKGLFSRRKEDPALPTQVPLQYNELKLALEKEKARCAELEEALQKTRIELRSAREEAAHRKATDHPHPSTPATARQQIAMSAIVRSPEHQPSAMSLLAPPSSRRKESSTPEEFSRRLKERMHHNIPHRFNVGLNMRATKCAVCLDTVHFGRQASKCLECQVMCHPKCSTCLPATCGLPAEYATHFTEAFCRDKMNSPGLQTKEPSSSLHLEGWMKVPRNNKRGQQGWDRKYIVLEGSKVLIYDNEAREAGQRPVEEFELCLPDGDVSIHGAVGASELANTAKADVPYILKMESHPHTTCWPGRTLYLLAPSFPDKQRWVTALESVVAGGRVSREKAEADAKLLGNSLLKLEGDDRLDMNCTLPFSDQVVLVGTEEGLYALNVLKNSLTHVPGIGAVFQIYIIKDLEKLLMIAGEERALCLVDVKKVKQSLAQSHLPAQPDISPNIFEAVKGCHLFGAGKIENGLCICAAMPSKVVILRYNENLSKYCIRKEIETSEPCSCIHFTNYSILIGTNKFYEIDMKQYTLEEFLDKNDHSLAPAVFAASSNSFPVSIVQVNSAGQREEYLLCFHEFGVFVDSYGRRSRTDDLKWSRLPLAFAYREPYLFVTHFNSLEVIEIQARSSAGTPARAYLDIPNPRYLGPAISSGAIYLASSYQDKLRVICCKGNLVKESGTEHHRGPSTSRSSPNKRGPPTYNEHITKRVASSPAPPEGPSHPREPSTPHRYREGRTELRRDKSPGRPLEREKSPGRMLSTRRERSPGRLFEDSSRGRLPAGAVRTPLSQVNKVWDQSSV
T18 sequence (Q8IW41 whole entry): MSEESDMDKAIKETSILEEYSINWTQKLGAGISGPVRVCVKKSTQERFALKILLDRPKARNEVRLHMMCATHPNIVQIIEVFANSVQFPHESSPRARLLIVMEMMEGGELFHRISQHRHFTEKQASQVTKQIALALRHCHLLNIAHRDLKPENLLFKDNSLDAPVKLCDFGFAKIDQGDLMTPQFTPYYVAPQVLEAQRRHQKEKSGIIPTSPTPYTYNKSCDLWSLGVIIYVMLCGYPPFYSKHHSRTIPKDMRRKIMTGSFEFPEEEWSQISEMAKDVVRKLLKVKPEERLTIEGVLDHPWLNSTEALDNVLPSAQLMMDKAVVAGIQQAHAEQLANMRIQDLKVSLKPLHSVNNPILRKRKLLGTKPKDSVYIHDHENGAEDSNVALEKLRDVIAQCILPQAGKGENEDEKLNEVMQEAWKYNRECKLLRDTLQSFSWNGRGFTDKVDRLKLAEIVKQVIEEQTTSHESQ

Take `CCN1CCN(C(=O)c2ccc(Nc3ncc(F)c(-c4ccc5nc(N(C)C)sc5c4)n3)nc2)CC1` [YK-2-69]: the remaining activity at 1 µM in test [1] came out at 49.6%; in test [2], 101%; in test [3] it was 102%; in test [5], 88.2%; in test [6], 97%; in test [7], 94.2%. The remaining activity at 1 µM in [8] was determined as 99.7%; in test [9], 85.9%; in [11] it was 94.9%; in test [12] it was 106%; in test [13], 62.2%; in test [14], 83.2%. For the same molecule, the remaining activity at 1 µM in test [15] amounted to 89.2%; in [16], 70.5%; in [17], 99.7%; in test [18], 98.5%; in [19] it was 88.9%; in test [20] it was 89.5%. Also, the remaining activity at 1 µM in test [21] amounted to 82%. Further, the “% Enzyme Activity (relative to DMSO controls)” value in test [4] was 95.11% and 94.67%; in test [10] it was 97.73% and 95.85%.
